Results: paper PMC7317179 (The Korean Journal of Physiology & Pharmacology : …, 2020)

Target: T1, anoctamin-1 (hANO1, TMEM16A) (Homo sapiens, UniProt Q5XXA6)
T1 sequence (Q5XXA6 1-986): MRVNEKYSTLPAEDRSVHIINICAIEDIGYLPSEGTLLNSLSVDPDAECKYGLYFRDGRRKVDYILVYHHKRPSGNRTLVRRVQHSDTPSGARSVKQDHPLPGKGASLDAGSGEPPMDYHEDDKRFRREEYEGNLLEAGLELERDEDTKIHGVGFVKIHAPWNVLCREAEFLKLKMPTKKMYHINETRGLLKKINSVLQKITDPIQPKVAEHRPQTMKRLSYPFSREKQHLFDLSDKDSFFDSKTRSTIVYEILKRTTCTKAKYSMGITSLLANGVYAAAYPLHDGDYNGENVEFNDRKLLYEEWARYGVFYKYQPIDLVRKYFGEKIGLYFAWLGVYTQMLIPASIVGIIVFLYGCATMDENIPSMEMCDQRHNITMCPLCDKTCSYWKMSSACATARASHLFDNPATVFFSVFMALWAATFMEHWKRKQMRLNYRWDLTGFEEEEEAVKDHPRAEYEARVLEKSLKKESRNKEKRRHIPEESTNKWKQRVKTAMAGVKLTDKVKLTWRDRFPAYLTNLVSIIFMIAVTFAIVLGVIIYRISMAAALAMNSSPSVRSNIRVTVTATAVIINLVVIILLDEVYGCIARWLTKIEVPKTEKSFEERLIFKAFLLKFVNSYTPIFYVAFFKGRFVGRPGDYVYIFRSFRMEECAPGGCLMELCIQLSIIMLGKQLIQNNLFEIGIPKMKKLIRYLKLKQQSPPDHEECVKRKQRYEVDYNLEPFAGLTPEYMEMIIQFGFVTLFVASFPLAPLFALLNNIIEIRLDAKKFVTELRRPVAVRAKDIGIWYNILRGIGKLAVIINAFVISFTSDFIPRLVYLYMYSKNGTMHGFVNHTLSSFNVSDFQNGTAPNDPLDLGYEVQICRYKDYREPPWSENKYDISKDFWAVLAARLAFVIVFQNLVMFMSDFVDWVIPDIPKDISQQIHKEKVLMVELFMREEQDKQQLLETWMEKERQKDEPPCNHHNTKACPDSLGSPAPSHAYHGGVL
Assay: whole-cell patch clamp, hANO1-HEK293T
Type: cell-based

SMILES: O=c1cc(-c2ccc(O)c(O)c2)oc2cc(O)cc(O)c12 [compound 5, luteolin]
- IC50: 27.9 ± 1.61 µM
